The source of these data is article PMC8622278, “The Effects of Structural Alterations in the Polyamine and Amino Acid Moieties of Philanthotoxins on Nicotinic Acetylcholine Receptor Inhibition in the Locust, Schistocerca gregaria” (Molecules, 2021).

Each structure is given as a SMILES string. Several values for one entry are separate records, joined by “and”; a condition that tells them apart may be missing. Identical values can stand only once. Like-named read-outs stand apart in the source and are kept apart here.

Test [1] relates to locust neuron nAChR. Put plainly: Whole-cell patch-clamp of locust mushroom body neurons, ACh-evoked currents. The settings on record: for Fold increase in potency vs PhTX-343, 1 s current / Fold increase in potency vs PhTX-343, peak current: IC50 PhTX-343 / IC50 analogue; for Cells in which potentiation of the ACh response was observed: co-application of 0.01 and 0.1 μM. In kind it is cell-based, Schistocerca gregaria. The method, then:
Neuronal cells were harvested through dissection of adult desert locusts (Shistocerca gregaria) purchased from livefoods.com. Following 10 min of cold anaesthesia at 4 °C, the locusts were submerged in 70% ethanol and their heads removed by decapitation with dissection scissors. The front of the head capsule was removed to expose the mushroom body of the brain, which was extracted, cut into small pieces, and placed into a 1 mL Eppendorf tube with 200 μL of Rinaldi’s saline (135 mM NaCl, 25 mM KCl, 0.4 mM NaHCO3, 0.5 mM glucose, and 5 mM HEPES adjusted to pH 7.2 with NaOH) containing 0.5 mg/mL dispase and 2 mg/mL collagenase. After 15 min incubation at 36.5 °C, neurons were centrifuged at 800× g for 1 min at room temperature to form a pellet. The supernatant was removed and replaced with 200 μL locust culture medium (5:4 − DMEM + 10% FCS + 2 mM Gln: Schneider’s insect medium + 10 IU/mL penicillin + 20 μg/mL streptomycin). A total of 200 μL of culture medium was gently pipette-mixed with the pellet to create a suspension of cells, which were spread over poly-L-lysine-coated glass coverslips (5 × 20 mm) in 35 mm Petri dishes containing 2 mL locust culture medium. Petri dishes were incubated overnight at 36.5 °C in a 5% CO2 atmosphere.
Experiments were conducted 16–24 h after neuron dissociation. Coverslips covered in locust neurons were placed into a patch-clamp perfusion chamber, and were then constantly perfused with locust saline solution (180 mM NaCl, 10 mM KCl, 2 mM CaCl2, 10 mM HEPES, and pH 7.2 with NaOH). Borosilicate glass patch pipettes (1B150F-4, World Precision Instruments, Hertfordshire, UK), pulled to ~5–10 MΩ with a P-97 Flaming/Brown micropipette puller (Sutter Instrument Co., Novato, CA, USA), were filled with caesium pipette solution (140 mM CsCl, 1 mM CaCl2, 1 mM MgCl2, 11 mM EGTA, and 5 mM HEPES, pH 7.2) and placed in a patch pipette holder mounted on the patch-clamp amplifier head stage. Patch-clamped cells were clamped at a holding potential (VH) of −75 mV. Whole-cell currents were monitored by using an Axopatch 200A patch-clamp amplifier (Molecular Devices, San Jose, CA, USA) and recorded with WinWCP V4.5.7 software (Dr John Dempster, Institute of Pharmacy & Biomedical Sciences, University of Strathclyde, Glasgow, UK). Test compounds were focally applied to cells as 1 s pulses using a DAD-12 superfusion system (ALA Scientific Instruments, Farmingdale, NY, USA). Between each application of test compounds, clamped cells were washed for 1 min with locust saline. […]
A total of 100 μM acetylcholine (ACh) was applied to cells twice prior to (control) and once after the co-application of 100 μM ACh and PhTX analogue. Peak current and current after 1 s of application were measured using WinWCP, and then the percentage of control response values were generated by normalising responses to ACh + PhTX co-application to the ACh-only control response. GraphPad Prism 9 (GraphPad Software, San Diego, CA, USA) was used for data analysis, graph plotting, curve fitting, and statistical analysis. To estimate the ACh EC50, concentration–response data were fit by the Hill equation:(1) % maximum response=100/(1+10^(LogEC50−X)S) where X is the log of the ACh concentration and S is the Hill slope. Concentration–inhibition curves were generated by plotting the mean and standard error of the normalised current measurements against log antagonist concentration, and then IC50 values were estimated by fitting a non-linear regression curve by using the equation:(2) % control response=100/(1+10^(X−LogIC50)S) where X is the log of the concentration of the PhTX analogue and S is the Hill slope.
(Patch clamp records ionic current or voltage across a cell membrane.)

Test [2] deals with rat α4β2 nAChRs. The settings on record: rat subtype α4β2; cited from earlier work.
The test system of test [3] is human muscle-type nAChRs. On the set-up: method as in PMID 16892364. The settings on record: cited from earlier work.
In test [4] the test system is rat α3β4 nAChRs. The settings on record: rat subtype α3β4; cited from earlier work.
The mark [5] stands for this setting: inhibition of 100 μM ACh-evoked current after 1 s of activation, VH −75 mV, read-out: IC50 (95% CI), 1 s Current.
Setting [6] is: inhibition of 100 μM ACh-evoked peak current, VH −75 mV, read-out: IC50 (95% CI), Peak Current.
Where [7] appears, read: at both 0.01 and 0.1 μM, cells showing potentiation, 100 μM ACh.

For the compound `CC(=O)OCC[N+](C)(C)C` [ACh, acetylcholine], the EC50 in test [1] (peak response, n = 11, read-out: EC50 of ACh-evoked whole-cell current) worked out at 20300 nM.
As for `CCCC(=O)N[C@@H](CC1CCCCC1)C(=O)NCCCCCCCCCCCCN` [Cha-PhTX-12], the “Fold increase in potency vs PhTX-343, 1 s current” value (shortened to “Fold increase … 1 s current”) in test [1] came out at 471 fold. Moreover, in test [1], the “Fold increase in potency vs PhTX-343, peak current” value (“Fold increase … peak current” for short) is > 5000 fold. For the same compound, the IC50 in test [1] (at −75 mV (abstract; 1 s current), read-out: IC50) is 1.71 nM; in test [1] (setting [5]), 1.7 nM; in test [1] (setting [6]) it was 7.5 nM.
Turning to `CCCC(=O)N[C@@H](CC1CCCCC1)C(=O)NCCCNCCCCNCCCN` [Cha-PhTX-343], the IC50 result in test [2] was “low nanomolar range”; in test [4], “low nanomolar range”; in test [1] (setting [5]), 440 nM; in test [1] (setting [6]) it was 1750 nM. For the same compound, the “Times more potent than PhTX-12” value in test [3] is recorded as > 10 times. In addition, in test [3], the “Times more potent than PhTX-343” value was > 100 times. In addition, the “Potentiation, % of the ACh control response, peak and 1 s current similar” value is “about 145%” in test [1] (0.01 μM, cells showing potentiation, 100 μM ACh) and ~125% in test [1] (0.1 μM, cells showing potentiation, 100 μM ACh). In addition, the “Fold increase … 1 s current” value in test [1] was determined as 1.8 fold. The “Fold increase … peak current” value in test [1] stood at 23 fold. Moreover, the “Cells in which potentiation of the ACh response was observed” value in test [1] is 12 out of 22.
`CCCC(=O)N[C@@H](Cc1ccc(O)cc1)C(=O)NCCCCCCCCCCCCN` [PhTX-12]: in test [1], the “Fold increase … 1 s current” value was 6.2 fold and ~ 6 fold; the “Fold increase … peak current” value is given as 34 fold. For the same compound, the IC50 in test [1] (setting [5]) came to 130 nM. Further, the IC50 in test [1] (setting [6]) is 1170 nM.
As to `CCCC(=O)N[C@@H](Cc1ccc(O)cc1)C(=O)NCCCNCCCCNCCCN` [PhTX-343, philanthotoxin-343, reference compound], in test [1] (setting [7]), the “Mean potentiation, % of the ACh control response, 1 s current” value is ~300% and the “Mean potentiation, % of the ACh control response, peak current” value was “around 200%”. Besides, the “Cells in which potentiation of the ACh response was observed” value in test [1] is 8 out of 23. In addition, the IC50 in test [1] (setting [5]) was found to be 800 nM. The IC50 in test [1] (setting [6]) amounted to 39800 nM.
Regarding `COc1cc2c3cc1Oc1cc(ccc1O)C[C@@H]1c4c(cc(OC)c(O)c4Oc4ccc(cc4)C[C@@H]3N(C)CC2)CC[N+]1(C)C` [d-tubocurarine, reference compound], the IC50 in test [1] (co-applied 0.1 to 100 μM with 100 μM ACh, n = 11, read-out: IC50 for inhibition of 100 μM ACh current) was determined as 2730 nM. Further, in test [1] (highest concentration (100 μM) co-applied with 100 μM ACh), the “Inhibition at the highest concentration” value is “complete inhibition”.
Regarding `CN1CCC[C@H]1c1cccnc1` [nicotine, reference compound], in test [1] (100 μM, same neuron), the “Whole-cell current response compared with 100 μM ACh” value is given as “smaller than that seen for ACh”.

As a reminder, the EC50 is the midpoint of the concentration-response curve. The term IC50 denotes the concentration that gives 50% inhibition.
